According to patent US4229448A, “5-Substituted picolinic acid derivatives and an anti-hypertensive composition containing the same” (Meuji Seika Kaisha Ltd., priority 1978, dated 1980):
Where a name gives a salt, the structure may show the parent alone.

What was measured:
[1] = Acute toxicity (LD50), intraperitoneal (Table 1); assay type: in vivo; settings: mouse, in vivo, ip, male ICR mice, 5 week old, observed 1 week after administration
[2] = system: spontaneously hypertensive rats; experiment: Blood pressure changes, Direct Blood Pressure Measuring Method, oral administration (Table 1); assay type: in vivo; settings: Rattus norvegicus, read-out: Maximum Depression in Blood Pressure
Experimental: Each of the compounds of the invention as indicated below was suspended in a 5% aqueous gum arabic solution and the suspension was administered orally (100 mg/kg) to groups consisting of three spontaneously hypertensive rats (18-23 week old; blood pressure before administration: 170-190 mmHg).

[3] = Oral LD50; settings: in vivo
[4] = system: spontaneously hypertensive rats; experiment: Blood pressure changes, Tail Cuff Method, oral administration (Table 2); assay type: in vivo; settings: Rattus norvegicus, 100 mg/kg orally, read-out: Maximum Depression in Blood Pressure
Experimental: Each of the compounds of the invention as indicated below was suspended in a 5% aqueous gum arabic solution and the suspension was administered orally to groups consisting of three spontaneously hypertensive rats (17-23 week old; blood pressure before administration: 170-190 mmHg).

[5] = system: male mice (ICR strain, 5 week old); experiment: Acute toxicity (LD50), intraperitoneal (Table 1); assay type: in vivo; settings: observed 1 week after administration, 10080 min
[6] = prior art; cited from earlier work
[7] = prior art; cited from earlier work; remark: listed apart in the source
[8] = Water solubility; assay type: physicochemical; settings: suited for subcutaneous injection
[9] = 100 mg/kg orally, spontaneously hypertensive rats, Direct Blood Pressure Measuring Method

SMILES: O=C(O)c1ccc(Oc2ccc(Cl)cc2Cl)cn1 [5-(2,4-Dichlorophenoxy)picolinic Acid]
- LD50 at 168 h [1]: 150 to 200 mg/kg
- inhibition in vivo at 100 mg/kg [2, 9]: 24.6%

SMILES: COc1ccc(Oc2ccc(C(=O)O)nc2)c(OC)c1 [5-(2,4-Dimethoxyphenoxy)picolinic Acid]
- LD50 at 168 h [1]: 400 to 450 mg/kg
- inhibition in vivo at 100 mg/kg [2, 9]: 19.2%

SMILES: Cc1ccc(Oc2ccc(C(=O)O)nc2)c(C)c1 [5-(2,4-Dimethylphenoxy)picolinic Acid]
- LD50 at 168 h [1]: 250 to 300 mg/kg
- inhibition in vivo at 100 mg/kg [2, 9]: 16.9%

SMILES: O=C(O)c1ccc(Oc2ccc(C(F)(F)F)cc2C(F)(F)F)cn1 [5-(2,4-Ditrifluoromethylphenoxy)picolinic Acid]
- LD50 at 168 h [1]: 200 to 250 mg/kg
- inhibition in vivo at 100 mg/kg [2, 9]: 25.5%

SMILES: O=C(O)c1ccc(Oc2c(Cl)cccc2Cl)cn1 [5-(2,6-Dichlorophenoxy)picolinic Acid]
- LD50 at 168 h [1]: 150 to 200 mg/kg
- inhibition in vivo at 100 mg/kg [2, 9]: 23.7%

SMILES: O=C(O)c1ccc(OCCCCl)cn1 [5-(3-Chloropropoxy)picolinic Acid, 5-(3-chloropropoxy)picolinic acid]
- LD50 at 168 h [1]: 150 to 200 mg/kg
- inhibition in vivo at 100 mg/kg [2, 9]: 18.2%

SMILES: NC(=O)c1ccc(OCCCCCl)cn1 [5-(4-Chlorobutoxy)picolinic Acid Amide, 5-(4-chlorobutoxy)picolinic acid amide]
- LD50 [3]: 1500 to 1600 mg/kg
- inhibition in vivo at 100 mg/kg [4]: 21.5%

SMILES: O=C(O)c1ccc(OCCCCCl)cn1 [5-(4-Chlorobutoxy)picolinic Acid, 5-(4-chlorobutoxy)picolinic acid]
- Acute Toxicity (LD50) [5]: 150 to 200 mg/kg
- LD50 [3]: 900 mg/kg
- inhibition in vivo at 100 mg/kg [2, 9]: 23%

SMILES: O=C(O)c1ccc(OCCCCC(F)(F)F)cn1 [5-(5,5,5-Trifluoropentyloxy)picolinic Acid] [5-(5,5,5-trifluoropentyloxy)picolinicacid]
- Acute Toxicity (LD50) [5]: 150 to 200 mg/kg

SMILES: O=C(O)c1ccc(OCCCCC(F)(F)F)cn1 [5-(5,5,5-trifluoropentyloxy)picolinicacid]
- inhibition in vivo at 100 mg/kg [2, 9]: 28.7%

SMILES: O=C(O)c1ccc(Oc2cccc(Cl)c2)cn1 [5-(m-Chlorophenoxy)picolinic Acid, 5-(m-chlorophenoxy)picolinic acid]
- LD50 at 168 h [1]: 300 to 400 mg/kg
- inhibition in vivo at 100 mg/kg [2, 9]: 16.7%

SMILES: O=C(O)c1ccc(Oc2cccc(C(F)(F)F)c2)cn1 [5-(m-trifluoromethylphenoxy)picolinic acid]
- LD50 at 168 h [1]: 500 to 600 mg/kg
- inhibition in vivo at 100 mg/kg [2, 9]: 20.8%

SMILES: NC(=O)c1ccc(Oc2ccccc2Cl)cn1 [5-(o-Chlorophenoxy)picolinic Acid Amide]
- inhibition in vivo at 100 mg/kg [4]: 19.6%

SMILES: O=C(O)c1ccc(Oc2ccccc2Cl)cn1 [5-(o-Chlorophenoxy)picolinic Acid, 5-(o-chlorophenoxy)picolinic acid]
- LD50 at 168 h [1]: 150 to 200 mg/kg
- LD50 [3]: 400 to 600 mg/kg
- inhibition in vivo at 100 mg/kg [2, 9]: 30.1%

SMILES: NC(=O)c1ccc(Oc2ccccc2C(F)(F)F)cn1 [5-(o-trifluoromethylphenoxy)picolinic acid amide]
- LD50 [3]: 950 mg/kg
- inhibition in vivo at 100 mg/kg [4]: 20.7%

SMILES: O=C(O)c1ccc(Oc2ccccc2C(F)(F)F)cn1 [5-(o-trifluoromethylphenoxy)picolinic acid]
- LD50 at 168 h [1]: 150 to 200 mg/kg
- LD50 [3]: 400 to 600 mg/kg
- inhibition in vivo at 100 mg/kg [2, 9]: 27.6%

SMILES: CC(=O)c1ccc(Oc2ccc(C(=O)O)nc2)cc1 [5-(p-Acetylphenoxy)picolinic Acid]
- LD50 at 168 h [1]: 400 to 500 mg/kg
- inhibition in vivo at 100 mg/kg [2, 9]: 17.3%

SMILES: O=C(O)c1ccc(Oc2ccc(Br)cc2)cn1 [5-(p-Bromophenoxy)picolinic Acid, 5-(p-bromophenoxy)picolinic acid]
- LD50 at 168 h [1]: 150 to 200 mg/kg
- inhibition in vivo at 100 mg/kg [2, 9]: 27.5%

SMILES: NC(=O)c1ccc(Oc2ccc(Cl)cc2)cn1 [5-(p-Chlorophenoxy)picolinic Acid Amide, 5-(p-chlorophenoxy)picolinic acid amide]
- inhibition in vivo at 100 mg/kg [4]: 23.7%

SMILES: O=C(O)c1ccc(Oc2ccc(Cl)cc2)cn1 [5-(p-Chlorophenoxy)picolinic Acid, 5-(p-chlorophenoxy)picolinic acid]
- Acute Toxicity (LD50) [5]: 150 to 200 mg/kg
- LD50 [3]: 400 to 600 mg/kg
- inhibition in vivo at 100 mg/kg [2, 9]: 28.3%

SMILES: COc1ccc(Oc2ccc(C(=O)O)nc2)cc1 [5-(p-Methoxyphenoxy)picolinic Acid, 5-(p-methoxyphenoxy)picolinic acid]
- LD50 at 168 h [1]: 500 to 600 mg/kg
- inhibition in vivo at 100 mg/kg [2, 9]: 14.2%

SMILES: Cc1ccc(Oc2ccc(C(=O)O)nc2)cc1 [5-(p-Methylphenoxy)picolinic Acid, 5-(p-methylphenoxy)picolinic acid]
- LD50 at 168 h [1]: 200 to 300 mg/kg
- inhibition in vivo at 100 mg/kg [2, 9]: 17%

SMILES: O=C(O)c1ccc(Oc2ccc([N+](=O)[O-])cc2)cn1 [5-(p-Nitrophenoxy)picolinic Acid, 5-(p-nitrophenoxy)picolinic acid]
- LD50 at 168 h [1]: 500 to 600 mg/kg
- inhibition in vivo at 100 mg/kg [2, 9]: 15.1%

SMILES: Cl.Cl.Nc1ccc(Oc2ccc(C(=O)O)nc2)cc1 [5-(p-aminophenoxy)picolinic acid dihydrochloride]
- LD50 at 168 h [1]: 450 to 500 mg/kg
- inhibition in vivo at 100 mg/kg [2, 9]: 8.3%

SMILES: O=C(O)c1ccc(Oc2ccc(C(F)(F)F)cc2)cn1 [5-(p-trifluoromethylphenoxy)picolinic acid]
- LD50 at 168 h [1]: 200 to 250 mg/kg
- inhibition in vivo at 100 mg/kg [2, 9]: 29.3%

SMILES: O=C(Oc1ccc2c(c1)CCC2)c1ccc(OCCCCCl)cn1 [5-indanyl ester of 5-(4-chlorobutoxy)picolinic acid]
- LD50 [3]: 1600 to 1800 mg/kg
- inhibition in vivo at 100 mg/kg [4]: 26.3%

SMILES: CCCCOc1ccc(C(=O)O)nc1 [5-n-Butoxy-picolinic Acid, reference compound]
- LD50 at 168 h [1]: 100 to 150 mg/kg
- inhibition in vivo at 100 mg/kg [2, 9]: 16.6%

SMILES: O=C(O)c1ccc(OCCCCCl)cn1 [Calcium Salt of 5-(4-Chlorobutoxy)picolinic Acid] [Calcium 5-(4-chlorobutoxy)picolinate]
- Acute Toxicity (LD50) [5]: 800 to 1000 mg/kg

SMILES: O=C(O)c1ccc(OCCCCC(F)(F)F)cn1 [Calcium Salt of 5-(5,5,5-Trifluoropentyloxy)picolinic Acid] [Calcium 5-(5,5,5-trifluoropentyloxy)picolinate]
- Acute Toxicity (LD50) [5]: 800 to 900 mg/kg

SMILES: O=C(O)c1ccc(Oc2ccc(Cl)cc2)cn1 [Calcium Salt of 5-(p-Chlorophenoxy)picolinic Acid]
- Acute Toxicity (LD50) [5]: 350 to 400 mg/kg

SMILES: CCCCc1ccc(C(=O)O)nc1 [Fusaric Acid, 5-n-butylpicolinic acid, reference compound]
- anti-hypertensive activity (in words) [6]: useful as an anti-hypertensive agent
- LD50 at 168 h [1]: 75 to 100 mg/kg
- LD50 value (in words) [7]: low LD50 value
- inhibition in vivo at 100 mg/kg [2]: 15.8%

SMILES: O=C(Oc1ccc2c(c1)CCC2)c1ccc(Oc2ccccc2C(F)(F)F)cn1 [Indanyl Ester of 5-(o-Trifluoromethylphenoxy)picolinic Acid]
- inhibition in vivo at 100 mg/kg [4]: 26.3%

SMILES: CN(C)CCOC(=O)c1ccc(OCCCCCl)cn1 [dimethylaminoethyl ester of 5-(4-chlorobutoxy)picolinic acid hydrochloride]
- water solubility [8]: increased water solubility

SMILES: CCOC(=O)c1ccc(Oc2ccc(Cl)cc2)cn1 [ethyl ester of 5-(p-chlorophenoxy)picolinic acid]
- inhibition in vivo at 100 mg/kg [4]: 23.3%

SMILES: O=C(Oc1ccc2c(c1)CCC2)c1ccc(Oc2ccccc2Cl)cn1 [indanyl ester of 5-(o-chlorophenoxy)picolinic acid]
- inhibition in vivo at 100 mg/kg [4]: 29%

SMILES: O=C(Oc1ccc2c(c1)CCC2)c1ccc(Oc2ccc(Cl)cc2)cn1 [indanyl ester of 5-(p-chlorophenoxy)picolinic acid]
- LD50 [3]: 700 to 800 mg/kg
- inhibition in vivo at 100 mg/kg [4]: 27.5%

SMILES: CC(OC(=O)c1ccc(Oc2ccc(Cl)cc2)cn1)OC(=O)C(C)(C)C (stereo not drawn) [α-pivaloyloxyethyl ester of 5-(p-chlorophenoxy)picolinic acid]
- LD50 [3]: 900 to 1000 mg/kg
- inhibition in vivo at 100 mg/kg [4]: 21.8%
